Results: patent publication US8506964B2, “Fusion proteins and related compositions, methods and systems for treatment and/or prevention of atherosclerosis” (priority 2010, dated 2013)

Columns and labels:
apo E −/− mice = experiment: Subcutaneous immunization of apo E −/− mice with peptide test articles, plaque size in en face aorta; type: in vivo
Excerpt: Inhibition of atherosclerosis in apo E −/− mice by immunization with fifteen different test articles based on fifteen different peptide fragments of apo B was investigated.
In these experiments, apo E −/− mice received primary subcutaneous immunization at 6-7 weeks of age, followed by two boosters administered […]. The mice were fed a high cholesterol diet from 1 week after the second injection (10 weeks of age) and continued until sacrifice at 25 weeks of age. The effect of immunization on atherosclerosis formation was assessed by measuring plaque size (percent area stained with Oil Red O) in an en face preparation of the aorta.
Based on the results from these and other experiments, four peptides were identified as particularly effective in reducing the progression of atherosclerosis.

mouse LDL = experiment: ELISA of sera for antibodies to mouse LDL; type: in vivo; details: parenteral immunization; data not shown
Procedure: ELISA methods were used to quantitate serum Ig isotypes specific for the apoB-100 peptide as well as total IgG and IgM as previously described (ref. 19). Sera from immunized mice were tested for antibodies to mouse LDL by incubation (1/50, 1/150 and 1/450 dilutions) in plates coated with mouse LDL (10 μg/ml) and using alkaline phosphatase-conjugated anti-mouse-IgG as detector antibody. Sera from C57BL/6 mice immunized with OVA-CTB were assayed for reactivity to mouse or human LDL, or to apoB100, at dilutions of 1/25, 1/250 and 1/2500.

[1] = subcutaneous immunization at 6-7 weeks, boosters 3 and 5 weeks later, high cholesterol diet, plaque size (percent area Oil Red O) at 25 weeks

Substance	Reduction in atherosclerosis progression (apo E −/− mice; [1])	further results
ATRFK HLRKY TYNYE AESSS (ATRFKHLRKYTYNYEAESSS; Apolipoprotein B-100; UniProt P04114 43-62, looked up, fragment) [Peptide P2]	(−42%, p < 0.05)	–
IEIGL EGKGF EPTLE ALFGK (IEIGLEGKGFEPTLEALFGK) [Peptide P45]	(−53%, p < 0.05)	–
KTTKQ SFDLS VKAQY KKNKH (KTTKQSFDLSVKAQYKKNKH) [Peptide P210]	(−49%, p = 0.06)	–
SLTST SDLQS GIIKN TASLK [Peptide P102]	–	Reduction in atherosclerosis progression (apo E −/− mice; mouse, in vivo, sc): (−52%, p < 0.05)
ovalbumin	–	IgG antibody responses to mouse LDL (mouse LDL): did not lead to induction of significant IgG antibody responses
